pIC50: −log10 of the molar value.
Test system: 633275-114-R-J1-PDC complex spheroids, viability
Assay: Anticancer human tumor 633275-114-R-J1-PDC patient-derived endometrial adenocarcinoma cell line growth inhibition [GQUAD]
Settings: for pIC50: curve of first compound; for viability, T/C: stronger effect = lower value
From the text: DNA G-quadruplex Stabilizer Agents in Combinations in Complex Spheroids
A high-throughput screen of multi-cell type tumor spheroids was designed to identify active combinations of DNA G-quadruplex stabilizer agents and targeted small molecules. Complex spheroids include a stromal component modeled by human endothelial cells (HUVEC) and fibroblasts modeled by human mesenchymal stem cells (MSCs). The concentration ranges selected for each drug and investigational agent were based upon clinically achievable concentrations if the clinical Cmax of the agent was known.
Compounds. The drugs and investigational agents: pidnarulex (CX-5461; NSC782164), APTO-253 (NSC789042), BRACO-19 (NSC847499), peposertib (NSC802822), ceralasertib (NSC780249), elimusertib (NSC800525), camonsertib (NSC841442), AZD-1390 (NSC803789), olaparib (NSC753686), talazoparib (NSC767125), ART-558 (NSC835418), sotorasib (NSC818433), MRTX-1133 (NSC836407), SN-38 (NSC673596), topotecan (NSC609699), etoposide (NSC141540), doxorubicin (NSC123127), gemcitabine (NSC613327), 5-fluorouracil (NSC19893), paclitaxel (NSC125973), vemurafenib (NSC761431), panobinostat (NSC761190), R-306465 (JNJ-16241199; NSC773264), adavosertib (NSC754352), TP-3654 (NSC805149), carboplatin (NSC241240), KSQ-4279 (NSC840948), and staurosporine (NSC755774) were obtained from the National Cancer Institute (NCI) Developmental Therapeutics Program Chemical Repository (34). The FDA-approved anticancer drug set is available from the NCI Developmental Therapeutics Program. […] The stock solutions were prepared in dimethyl sulfoxide (DMSO, Sigma-Aldrich, St. Louis, MO, cat. D2650) at 800-fold the tested concentration and stored at -70 degrees C prior to their use. All drugs and investigational agents were tested over a range starting from a high concentration at or near the clinical Cmax and decreasing in half-log increments. If the clinical Cmax for an agent had not been determined, the highest concentration tested was 10 microM.
2.3 Cell Culture. All cells were maintained in an incubator at 37 degrees C and 5% CO2 with 95% humidity. The PDC lines were cultured according to standard operating procedures established by the NCI PDMR. All PDCs were thawed and cultured in Matrigel-coated flasks prepared with a working solution of 1X Ham's F-12 nutrient mix, without supplementation (Invitrogen, cat. 11765054), 100 U/mL penicillin-streptomycin (Invitrogen, cat. 15140122), and 2.5% Matrigel (Corning Inc., cat. 354248) for the first three passages. The 857933-349-R-J2-PDC line was cultured in 6C/Colon 1B media, which includes advanced DMEM/F-12 (Thermo Fisher Scientific, cat. 12634028), 10 mM HEPES (Thermo Fisher Scientific, cat. 15630080), 1X GlutaMAX supplement (Thermo Fisher Scientific, cat. 35050061), 0.1 mg/mL primocin (InvivoGen, cat. ant-pm-2), 10% defined fetal bovine serum, heat inactivated (HyClone Laboratories Inc., cat. SH30070.03HI), 50% L-WRN conditioned media (ATCC, cat. CRL-3276), 1.25 mM N-Acetyl-L-cysteine (Sigma-Aldrich, cat. A9165), 10 mM nicotinamide (Sigma-Aldrich, cat. N0636), 1X B-27 supplement (Thermo Fisher Scientific, cat. 17504044), 1X N-2 supplement (Thermo Fisher Scientific, cat. 17502048), 10 microM Y-27632 dihydrochloride (Tocris Bioscience, cat. 1254), and 50 ng/mL human EGF recombinant protein (Thermo Fisher Scientific, cat. PHG0311). The 485176-168-R4-J1-PDC line was cultured in Panc media, which includes all 6C/Colon 1B media components plus 100 ng/mL human FGF-10 (Thermo Fisher Scientific, cat. 100-26), 500 nM SB-431542 (Selleckchem, cat. S1067), and gastrin (Tocris, cat. 3006).
[…]

[1] = second compound 0.0316 µM, first compound 0.0316 µM
[2] = second compound 0.0316 µM, first compound 0.316 µM
[3] = second compound 0.1 µM, first compound 0.0316 µM
[4] = second compound 0.1 µM, first compound 0.316 µM
[5] = second compound 0.316 µM, first compound 0.0316 µM
[6] = second compound 0.316 µM, first compound 0.316 µM
[7] = second compound 1 µM, first compound 0.0316 µM
[8] = second compound 1 µM, first compound 0.316 µM
[9] = second compound 3.16 µM, first compound 0.0316 µM
[10] = second compound 3.16 µM, first compound 0.316 µM
[11] = second compound 10 µM, first compound 0.0316 µM
[12] = second compound 10 µM, first compound 0.316 µM
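Further: spheroids exposed to the agents for seven days.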
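Wherever viability, T/C is given: percent of DMSO vehicle control viability which is 100%.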

## CC1COCCN1c1cc(C2(O)CC3CCC(C2)O3)c2cnn(-c3ccn[nH]3)c2n1 (centres undefined) + CN(C)c1ccc(Nc2c3ccc(NC(=O)CCN4CCCC4)cc3nc3cc(NC(=O)CCN4CCCC4)ccc23)cc1
Second compound 0.0316 µM
  pIC50: 7.03
Second compound 0.1 µM
  pIC50: 7.03
Second compound 0.316 µM
  pIC50: 6.98
Second compound 1 µM
  pIC50: 7.19
Second compound 3.16 µM
  pIC50: 7.27
Second compound 10 µM
  pIC50: > 7.50
[1]
  viability, T/C: 73.6%
Second compound 0.0316 µM, first compound 0.1 µM
  viability, T/C: 48.9%
[2]
  viability, T/C: 28.7%
Second compound 0.0316 µM, first compound 1 µM
  viability, T/C: 18.4%
Second compound 0.0316 µM, first compound 3.16 µM
  viability, T/C: 13.6%
Second compound 0.0316 µM, first compound 10 µM
  viability, T/C: 9.33%
[3]
  viability, T/C: 79.9%
Second compound 0.1 µM, first compound 0.1 µM
  viability, T/C: 46.5%
[4]
  viability, T/C: 30.2%
Second compound 0.1 µM, first compound 1 µM
  viability, T/C: 19.8%
Second compound 0.1 µM, first compound 3.16 µM
  viability, T/C: 15.4%
Second compound 0.1 µM, first compound 10 µM
  viability, T/C: 9.07%
[5]
  viability, T/C: 70.7%
Second compound 0.316 µM, first compound 0.1 µM
  viability, T/C: 50.7%
[6]
  viability, T/C: 33.1%
Second compound 0.316 µM, first compound 1 µM
  viability, T/C: 19.2%
Second compound 0.316 µM, first compound 3.16 µM
  viability, T/C: 15.8%
Second compound 0.316 µM, first compound 10 µM
  viability, T/C: 10.4%
[7]
  viability, T/C: 62.7%
Second compound 1 µM, first compound 0.1 µM
  viability, T/C: 41.7%
[8]
  viability, T/C: 30.4%
Second compound 1 µM, first compound 1 µM
  viability, T/C: 19.8%
Second compound 1 µM, first compound 3.16 µM
  viability, T/C: 14.4%
Second compound 1 µM, first compound 10 µM
  viability, T/C: 9.06%
[9]
  viability, T/C: 58.8%
Second compound 3.16 µM, first compound 0.1 µM
  viability, T/C: 39%
[10]
  viability, T/C: 26.7%
Second compound 3.16 µM, first compound 1 µM
  viability, T/C: 15.3%
Second compound 3.16 µM, first compound 3.16 µM
  viability, T/C: 12%
Second compound 3.16 µM, first compound 10 µM
  viability, T/C: 8.3%
[11]
  viability, T/C: 29.2%
Second compound 10 µM, first compound 0.1 µM
  viability, T/C: 23.9%
[12]
  viability, T/C: 17%
Second compound 10 µM, first compound 1 µM
  viability, T/C: 10.9%
Second compound 10 µM, first compound 3.16 µM
  viability, T/C: 8.55%
Second compound 10 µM, first compound 10 µM
  viability, T/C: 4.92%

## CCc1c2c(nc3ccc(O)cc13)-c1cc3c(c(=O)n1C2)COC(=O)[C@]3(O)CC + CN(C)c1ccc(Nc2c3ccc(NC(=O)CCN4CCCC4)cc3nc3cc(NC(=O)CCN4CCCC4)ccc23)cc1
Second compound 0.0316 µM
  pIC50: 8.53
Second compound 0.1 µM
  pIC50: 8.57
Second compound 0.316 µM
  pIC50: 8.48
Second compound 1 µM
  pIC50: 8.56
Second compound 3.16 µM
  pIC50: 8.70
Second compound 10 µM
  pIC50: > 9.00
Second compound 0.0316 µM, first compound 0.000999 µM
  viability, T/C: 82.3%
Second compound 0.0316 µM, first compound 0.00316 µM
  viability, T/C: 46.1%
Second compound 0.0316 µM, first compound 0.00999 µM
  viability, T/C: 34.6%
[1]
  viability, T/C: 35.3%
Second compound 0.0316 µM, first compound 0.0999 µM
  viability, T/C: 26.1%
[2]
  viability, T/C: 25.2%
Second compound 0.1 µM, first compound 0.000999 µM
  viability, T/C: 77.6%
Second compound 0.1 µM, first compound 0.00316 µM
  viability, T/C: 44.2%
Second compound 0.1 µM, first compound 0.00999 µM
  viability, T/C: 36.1%
[3]
  viability, T/C: 32%
Second compound 0.1 µM, first compound 0.0999 µM
  viability, T/C: 30.2%
[4]
  viability, T/C: 25.6%
Second compound 0.316 µM, first compound 0.000999 µM
  viability, T/C: 73%
Second compound 0.316 µM, first compound 0.00316 µM
  viability, T/C: 48.2%
Second compound 0.316 µM, first compound 0.00999 µM
  viability, T/C: 38.1%
[5]
  viability, T/C: 35.3%
Second compound 0.316 µM, first compound 0.0999 µM
  viability, T/C: 29.4%
[6]
  viability, T/C: 23.9%
Second compound 1 µM, first compound 0.000999 µM
  viability, T/C: 68.4%
Second compound 1 µM, first compound 0.00316 µM
  viability, T/C: 43.1%
Second compound 1 µM, first compound 0.00999 µM
  viability, T/C: 40.3%
[7]
  viability, T/C: 29.3%
Second compound 1 µM, first compound 0.0999 µM
  viability, T/C: 23.9%
[8]
  viability, T/C: 21.6%
Second compound 3.16 µM, first compound 0.000999 µM
  viability, T/C: 60.8%
Second compound 3.16 µM, first compound 0.00316 µM
  viability, T/C: 41.8%
Second compound 3.16 µM, first compound 0.00999 µM
  viability, T/C: 34.9%
[9]
  viability, T/C: 28.1%
Second compound 3.16 µM, first compound 0.0999 µM
  viability, T/C: 23.5%
[10]
  viability, T/C: 22.6%
Second compound 10 µM, first compound 0.000999 µM
  viability, T/C: 31%
Second compound 10 µM, first compound 0.00316 µM
  viability, T/C: 16%
Second compound 10 µM, first compound 0.00999 µM
  viability, T/C: 15.7%
[11]
  viability, T/C: 13.9%
Second compound 10 µM, first compound 0.0999 µM
  viability, T/C: 15.6%
[12]
  viability, T/C: 11.5%
